Source: patent publication US10604524B2, “Pyrropyrimidine compounds as MNKs inhibitors” (LIFEARC, priority 2015, dated 2020)

Tests used:
STK10 = STK10 (Homo sapiens, UniProt O94804); assay: Kinase selectivity screen; settings: read-out: % Inhibition STK10
RPS6KA5 = RPS6KA5 (Homo sapiens, UniProt O75582); assay: Kinase selectivity screen; settings: read-out: % Inhibition RPS6KA5
EPHB1 = EPHB1 (Homo sapiens, UniProt P54762); assay: Kinase selectivity screen; settings: read-out: % Inhibition EPHB1
KDR = KDR (Homo sapiens, UniProt P35968); assay: Kinase selectivity screen; settings: read-out: % Inhibition KDR
PIK3CB = PIK3CB (Homo sapiens, UniProt P42338); assay: Kinase selectivity screen; settings: read-out: % Inhibition PIK3CB
RET = RET (Homo sapiens, UniProt P07949); assay: Kinase selectivity screen; settings: read-out: % Inhibition RET
DYRK2 = DYRK2 (Homo sapiens, UniProt Q92630); assay: Kinase selectivity screen; settings: read-out: % Inhibition DYRK2
PIK3CD = PIK3CD (Homo sapiens, UniProt O00329); assay: Kinase selectivity screen; settings: read-out: % Inhibition PIK3CD
SRC = SRC (Homo sapiens, UniProt P12931); assay: Kinase selectivity screen; settings: read-out: % Inhibition SRC
ABL2 = ABL2 (Homo sapiens, UniProt P42684); assay: Kinase selectivity screen; settings: read-out: % Inhibition ABL2
ABL2, sequence (P42684 whole entry, species assumed): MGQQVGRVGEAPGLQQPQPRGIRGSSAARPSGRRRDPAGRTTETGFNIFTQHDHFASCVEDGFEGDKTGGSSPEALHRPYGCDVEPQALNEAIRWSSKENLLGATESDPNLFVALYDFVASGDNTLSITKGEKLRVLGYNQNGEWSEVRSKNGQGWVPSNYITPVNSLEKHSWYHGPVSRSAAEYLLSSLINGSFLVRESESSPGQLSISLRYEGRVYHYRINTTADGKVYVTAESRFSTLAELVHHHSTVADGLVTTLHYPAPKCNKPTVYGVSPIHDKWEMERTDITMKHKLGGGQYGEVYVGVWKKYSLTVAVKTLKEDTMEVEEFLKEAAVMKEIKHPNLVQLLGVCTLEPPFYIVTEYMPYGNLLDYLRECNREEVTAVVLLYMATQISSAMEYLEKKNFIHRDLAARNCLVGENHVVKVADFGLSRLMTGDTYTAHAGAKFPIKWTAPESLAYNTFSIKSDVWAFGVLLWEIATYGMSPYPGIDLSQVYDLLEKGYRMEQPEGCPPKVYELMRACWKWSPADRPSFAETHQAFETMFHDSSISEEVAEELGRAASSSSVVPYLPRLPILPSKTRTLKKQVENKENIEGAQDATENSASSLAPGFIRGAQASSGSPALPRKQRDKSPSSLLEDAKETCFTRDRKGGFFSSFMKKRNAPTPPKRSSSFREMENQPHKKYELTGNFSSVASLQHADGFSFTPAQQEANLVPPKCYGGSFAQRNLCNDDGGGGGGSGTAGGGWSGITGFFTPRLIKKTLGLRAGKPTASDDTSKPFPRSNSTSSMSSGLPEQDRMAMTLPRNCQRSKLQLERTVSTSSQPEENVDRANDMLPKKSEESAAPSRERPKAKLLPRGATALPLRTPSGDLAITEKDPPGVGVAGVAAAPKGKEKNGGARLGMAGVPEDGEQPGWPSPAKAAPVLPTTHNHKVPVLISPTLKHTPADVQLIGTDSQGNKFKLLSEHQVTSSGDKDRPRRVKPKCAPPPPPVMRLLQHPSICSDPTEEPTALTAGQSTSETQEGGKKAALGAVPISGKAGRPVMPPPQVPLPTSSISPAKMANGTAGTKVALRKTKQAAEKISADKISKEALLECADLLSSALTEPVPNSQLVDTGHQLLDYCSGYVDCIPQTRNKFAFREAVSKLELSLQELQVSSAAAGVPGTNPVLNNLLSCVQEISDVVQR

TYRO3 = TYRO3 (Homo sapiens, UniProt Q06418); assay: Kinase selectivity screen; settings: read-out: % Inhibition TYRO3
PRKCA = PRKCA (Homo sapiens, UniProt P17252); assay: Kinase selectivity screen; settings: read-out: % Inhibition PRKCA
EPHB4 = EPHB4 (Homo sapiens, UniProt P54760); assay: Kinase selectivity screen; settings: read-out: % Inhibition EPHB4
MAPKAPK2 = MAPKAPK2 (Homo sapiens, UniProt P49137); assay: Kinase selectivity screen; settings: read-out: % Inhibition MAPKAPK2
MAPKAPK2, sequence (P49137 whole entry, species assumed): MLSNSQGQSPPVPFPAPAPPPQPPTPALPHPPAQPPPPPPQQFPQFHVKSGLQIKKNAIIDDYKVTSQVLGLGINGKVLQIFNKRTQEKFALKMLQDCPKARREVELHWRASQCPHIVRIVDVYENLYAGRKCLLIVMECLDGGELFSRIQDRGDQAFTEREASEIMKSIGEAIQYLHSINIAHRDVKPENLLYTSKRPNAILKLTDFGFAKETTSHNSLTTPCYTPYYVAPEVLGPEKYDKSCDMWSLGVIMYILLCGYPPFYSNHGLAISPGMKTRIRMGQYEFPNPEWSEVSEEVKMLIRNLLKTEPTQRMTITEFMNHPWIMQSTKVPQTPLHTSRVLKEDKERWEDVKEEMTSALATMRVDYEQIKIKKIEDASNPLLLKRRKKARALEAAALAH

INSRR = INSRR (Homo sapiens, UniProt P14616); assay: Kinase selectivity screen; settings: read-out: % Inhibition INSRR
MTOR = MTOR (Homo sapiens, UniProt P42345); assay: Kinase selectivity screen; settings: read-out: % Inhibition MTOR
PIM2 = PIM2 (Homo sapiens, UniProt Q9P1W9); assay: Kinase selectivity screen; settings: read-out: % Inhibition PIM2
PIK3CA = PIK3CA (Homo sapiens, UniProt P42336); assay: Kinase selectivity screen; settings: read-out: % Inhibition PIK3CA
MET = MET (Homo sapiens, UniProt P08581); assay: Kinase selectivity screen; settings: read-out: % Inhibition MET
BTK = BTK (Homo sapiens, UniProt Q06187); assay: Kinase selectivity screen; settings: read-out: % Inhibition BTK
BTK, sequence (Q06187 whole entry, species assumed): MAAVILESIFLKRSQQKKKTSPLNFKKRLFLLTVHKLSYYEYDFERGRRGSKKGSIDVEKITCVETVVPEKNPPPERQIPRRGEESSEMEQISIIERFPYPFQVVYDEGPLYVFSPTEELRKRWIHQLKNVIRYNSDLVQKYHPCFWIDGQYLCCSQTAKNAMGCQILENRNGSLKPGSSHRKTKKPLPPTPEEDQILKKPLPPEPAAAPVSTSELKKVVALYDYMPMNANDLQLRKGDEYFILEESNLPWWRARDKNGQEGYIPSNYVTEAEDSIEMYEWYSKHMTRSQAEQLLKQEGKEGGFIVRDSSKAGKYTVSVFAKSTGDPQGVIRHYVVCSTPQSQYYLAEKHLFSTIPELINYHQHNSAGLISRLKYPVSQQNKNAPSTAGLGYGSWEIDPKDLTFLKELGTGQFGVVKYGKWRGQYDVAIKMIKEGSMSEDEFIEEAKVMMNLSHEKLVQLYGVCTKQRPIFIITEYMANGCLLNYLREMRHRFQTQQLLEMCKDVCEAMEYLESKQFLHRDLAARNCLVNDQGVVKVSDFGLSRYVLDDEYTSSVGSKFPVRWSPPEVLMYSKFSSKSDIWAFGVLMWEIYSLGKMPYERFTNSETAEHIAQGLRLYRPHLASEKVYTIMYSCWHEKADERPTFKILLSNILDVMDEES

PRKAA2 = PRKAA2 (Homo sapiens, UniProt P54646); assay: Kinase selectivity screen; settings: read-out: % Inhibition PRKAA2
GSK3A = GSK3A (Homo sapiens, UniProt P49840); assay: Kinase selectivity screen; settings: read-out: % Inhibition GSK3A
ROCK2 = ROCK2 (Homo sapiens, UniProt O75116); assay: Kinase selectivity screen; settings: read-out: % Inhibition ROCK2
MAP2K1 = MAP2K1 (Homo sapiens, UniProt Q02750); assay: Kinase selectivity screen; settings: read-out: % Inhibition MAP2K1
MINK1 = MINK1 (Homo sapiens, UniProt Q8N4C8); assay: Kinase selectivity screen; settings: read-out: % Inhibition MINK1
MINK1, sequence (Q8N4C8 whole entry, species assumed): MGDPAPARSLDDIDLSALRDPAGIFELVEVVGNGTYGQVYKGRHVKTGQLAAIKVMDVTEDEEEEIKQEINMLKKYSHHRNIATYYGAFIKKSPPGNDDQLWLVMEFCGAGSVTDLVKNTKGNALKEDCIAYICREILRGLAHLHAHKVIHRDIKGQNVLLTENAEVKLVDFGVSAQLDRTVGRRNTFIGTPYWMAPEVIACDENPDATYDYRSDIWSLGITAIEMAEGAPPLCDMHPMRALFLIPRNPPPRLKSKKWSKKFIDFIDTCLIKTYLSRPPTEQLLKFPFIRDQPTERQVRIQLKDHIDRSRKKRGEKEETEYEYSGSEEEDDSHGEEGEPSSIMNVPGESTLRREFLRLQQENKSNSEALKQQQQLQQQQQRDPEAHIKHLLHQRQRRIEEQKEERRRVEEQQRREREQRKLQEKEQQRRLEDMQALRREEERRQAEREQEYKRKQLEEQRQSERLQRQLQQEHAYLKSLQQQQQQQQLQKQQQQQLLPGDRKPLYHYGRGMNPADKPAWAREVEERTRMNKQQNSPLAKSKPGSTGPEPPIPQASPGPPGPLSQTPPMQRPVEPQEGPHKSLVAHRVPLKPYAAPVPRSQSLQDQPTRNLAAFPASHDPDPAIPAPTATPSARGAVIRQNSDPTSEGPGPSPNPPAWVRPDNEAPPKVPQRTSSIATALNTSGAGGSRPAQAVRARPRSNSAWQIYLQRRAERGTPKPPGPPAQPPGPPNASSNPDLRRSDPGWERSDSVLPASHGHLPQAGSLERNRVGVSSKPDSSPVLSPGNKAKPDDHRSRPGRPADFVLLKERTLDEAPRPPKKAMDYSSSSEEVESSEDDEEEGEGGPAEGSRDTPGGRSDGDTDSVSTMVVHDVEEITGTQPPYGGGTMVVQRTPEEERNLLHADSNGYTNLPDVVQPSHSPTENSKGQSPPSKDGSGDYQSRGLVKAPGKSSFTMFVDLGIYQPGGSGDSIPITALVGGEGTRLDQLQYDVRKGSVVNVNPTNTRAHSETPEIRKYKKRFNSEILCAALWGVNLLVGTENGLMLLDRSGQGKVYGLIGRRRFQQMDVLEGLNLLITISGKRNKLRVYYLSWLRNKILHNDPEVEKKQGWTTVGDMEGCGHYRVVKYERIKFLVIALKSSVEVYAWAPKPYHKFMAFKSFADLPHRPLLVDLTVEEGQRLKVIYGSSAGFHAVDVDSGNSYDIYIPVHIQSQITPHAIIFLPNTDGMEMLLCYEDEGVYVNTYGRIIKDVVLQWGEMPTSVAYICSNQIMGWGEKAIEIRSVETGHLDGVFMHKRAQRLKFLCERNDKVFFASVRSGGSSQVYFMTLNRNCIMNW

PIP4K2A = PIP4K2A (Homo sapiens, UniProt P48426); assay: Kinase selectivity screen; settings: read-out: % Inhibition PIP4K2A
NEK2 = NEK2 (Homo sapiens, UniProt P51955); assay: Kinase selectivity screen; settings: read-out: % Inhibition NEK2
PAK7 = PAK7 (Homo sapiens, UniProt Q9P286); assay: Kinase selectivity screen; settings: read-out: % Inhibition PAK7
CHEK1 = CHEK1 (Homo sapiens, UniProt O14757); assay: Kinase selectivity screen; settings: read-out: % Inhibition CHEK1
TGFBR1 = TGFBR1 (Homo sapiens, UniProt P36897); assay: Kinase selectivity screen; settings: read-out: % Inhibition TGFBR1
TGFBR1, sequence (P36897 34-503, species assumed): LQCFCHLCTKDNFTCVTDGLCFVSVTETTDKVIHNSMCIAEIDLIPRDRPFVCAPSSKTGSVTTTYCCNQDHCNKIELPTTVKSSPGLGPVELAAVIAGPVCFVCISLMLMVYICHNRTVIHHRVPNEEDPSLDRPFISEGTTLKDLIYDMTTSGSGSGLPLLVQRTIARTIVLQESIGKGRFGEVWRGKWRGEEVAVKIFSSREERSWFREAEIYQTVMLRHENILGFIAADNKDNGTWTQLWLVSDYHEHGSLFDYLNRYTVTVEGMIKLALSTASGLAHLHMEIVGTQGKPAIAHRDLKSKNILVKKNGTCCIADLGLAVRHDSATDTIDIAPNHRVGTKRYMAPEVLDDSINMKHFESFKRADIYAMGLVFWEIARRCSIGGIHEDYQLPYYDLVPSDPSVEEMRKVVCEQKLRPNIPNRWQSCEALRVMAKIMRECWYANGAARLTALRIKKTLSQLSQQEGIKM

AXL = AXL (Homo sapiens, UniProt P30530); assay: Kinase selectivity screen; settings: read-out: % Inhibition AXL
CSNK2A2 = CSNK2A2 (Homo sapiens, UniProt P19784); assay: Kinase selectivity screen; settings: read-out: % Inhibition CSNK2A2
Full-length human MNK1 = Full-length human MNK1 (Homo sapiens, UniProt Q9BUB5, T385D); assay: MNK1 biochemical IC50 assay (Caliper mobility shift)
Full-length human MNK1, sequence (Q9BUB5 1-424 isoform Q9BUB5-2 T344D): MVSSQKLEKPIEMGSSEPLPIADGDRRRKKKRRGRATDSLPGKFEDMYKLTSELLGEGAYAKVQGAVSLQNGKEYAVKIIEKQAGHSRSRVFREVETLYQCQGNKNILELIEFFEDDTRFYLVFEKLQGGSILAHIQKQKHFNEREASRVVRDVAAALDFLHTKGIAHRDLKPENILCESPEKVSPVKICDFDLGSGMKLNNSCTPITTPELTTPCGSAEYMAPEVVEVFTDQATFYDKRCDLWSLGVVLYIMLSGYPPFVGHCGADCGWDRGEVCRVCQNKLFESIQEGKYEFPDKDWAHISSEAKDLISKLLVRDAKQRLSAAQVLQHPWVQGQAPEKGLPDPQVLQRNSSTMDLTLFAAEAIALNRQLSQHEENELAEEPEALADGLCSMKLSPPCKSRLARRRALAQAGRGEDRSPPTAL

Full-length human MNK2 = Full-length human MNK2 (Homo sapiens, UniProt Q9HBH9, T379D); assay: MNK2 biochemical IC50 assay (Caliper mobility shift)
Full-length human MNK2, sequence (Q9HBH9 whole entry T379D): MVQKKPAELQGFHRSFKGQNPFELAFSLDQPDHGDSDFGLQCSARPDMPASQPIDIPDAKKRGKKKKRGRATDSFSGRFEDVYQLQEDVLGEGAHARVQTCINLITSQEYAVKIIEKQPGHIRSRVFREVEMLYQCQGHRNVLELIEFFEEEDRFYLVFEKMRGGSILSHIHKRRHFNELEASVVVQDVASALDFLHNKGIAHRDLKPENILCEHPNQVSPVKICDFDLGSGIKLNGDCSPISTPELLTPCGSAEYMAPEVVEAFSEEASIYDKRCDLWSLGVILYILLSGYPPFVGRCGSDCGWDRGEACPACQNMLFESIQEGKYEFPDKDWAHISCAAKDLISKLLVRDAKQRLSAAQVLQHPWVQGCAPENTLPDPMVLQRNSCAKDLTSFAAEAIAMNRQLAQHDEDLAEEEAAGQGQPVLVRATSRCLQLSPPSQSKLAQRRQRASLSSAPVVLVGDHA

**Q.** CC(C)Oc1cc(F)ccc1Nc1ncnc2cc(C(=O)NCCCN(C)C)n(C)c12 [Example 40, N-[3-(dimethylamino)propyl]-4-{[4-fluoro-2-(propan-2-yloxy)phenyl]amino}-5-methyl-5H-pyrrolo[3,2-d]pyrimidine-6-carboxamide] was tested. Which inhibition at 1 µM (STK10) did it give?
**A.** Its inhibition at 1 µM is 0%.

**Q.** What about the inhibition at 1 µM (RPS6KA5) of the same compound?
**A.** The inhibition at 1 µM was 0%.

**Q.** What about the inhibition at 1 µM (EPHB1) of the same compound?
**A.** The inhibition at 1 µM was 0%.

**Q.** And the inhibition at 1 µM (KDR)?
**A.** Its inhibition at 1 µM is 5%.

**Q.** What about the inhibition at 1 µM (PIK3CB) of the same compound?
**A.** The inhibition at 1 µM was 1%.

**Q.** And the inhibition at 1 µM (RET)?
**A.** The inhibition at 1 µM was 1%.

**Q.** What about the inhibition at 1 µM (DYRK2) of the same compound?
**A.** Its inhibition at 1 µM is 8%.

**Q.** What about the inhibition at 1 µM (PIK3CD) of the same compound?
**A.** The inhibition at 1 µM was 2%.

**Q.** And the inhibition at 1 µM (SRC)?
**A.** Its inhibition at 1 µM is 0%.

**Q.** What about the inhibition at 1 µM (ABL2) of the same compound?
**A.** Its inhibition at 1 µM is 0%.

**Q.** What about the inhibition at 1 µM (TYRO3) of the same compound?
**A.** Its inhibition at 1 µM is 0%.

**Q.** What about the inhibition at 1 µM (PRKCA) of the same compound?
**A.** The inhibition at 1 µM was 5%.

**Q.** What about the inhibition at 1 µM (EPHB4) of the same compound?
**A.** The inhibition at 1 µM was 2%.

**Q.** What about the inhibition at 1 µM (MAPKAPK2) of the same compound?
**A.** Its inhibition at 1 µM is 0%.

**Q.** What about the inhibition at 1 µM (INSRR) of the same compound?
**A.** The inhibition at 1 µM was 0%.

**Q.** What about the inhibition at 1 µM (MTOR) of the same compound?
**A.** The inhibition at 1 µM was 0%.

**Q.** What about the inhibition at 1 µM (PIM2) of the same compound?
**A.** The inhibition at 1 µM was 0%.

**Q.** What about the inhibition at 1 µM (PIK3CA) of the same compound?
**A.** The inhibition at 1 µM was 5%.

**Q.** And the inhibition at 1 µM (MET)?
**A.** Its inhibition at 1 µM is 13%.

**Q.** What about the inhibition at 1 µM (BTK) of the same compound?
**A.** The inhibition at 1 µM was 0%.

**Q.** And the inhibition at 1 µM (PRKAA2)?
**A.** The inhibition at 1 µM was 0%.

**Q.** And the inhibition at 1 µM (GSK3A)?
**A.** The inhibition at 1 µM was 0%.

**Q.** And the inhibition at 1 µM (ROCK2)?
**A.** The inhibition at 1 µM was 0%.

**Q.** And the inhibition at 1 µM (MAP2K1)?
**A.** Its inhibition at 1 µM is 0%.

**Q.** And the inhibition at 1 µM (MINK1)?
**A.** The inhibition at 1 µM was 0%.

**Q.** And the inhibition at 1 µM (PIP4K2A)?
**A.** The inhibition at 1 µM was 7%.

**Q.** What about the inhibition at 1 µM (NEK2) of the same compound?
**A.** The inhibition at 1 µM was 0%.

**Q.** And the inhibition at 1 µM (PAK7)?
**A.** Its inhibition at 1 µM is 0%.

**Q.** And the inhibition at 1 µM (CHEK1)?
**A.** Its inhibition at 1 µM is 0%.

**Q.** What about the inhibition at 1 µM (TGFBR1) of the same compound?
**A.** The inhibition at 1 µM was 0%.

**Q.** And the inhibition at 1 µM (AXL)?
**A.** The inhibition at 1 µM was 0%.

**Q.** What about the inhibition at 1 µM (CSNK2A2) of the same compound?
**A.** Its inhibition at 1 µM is 0%.

**Q.** And the IC50 (Full-length human MNK1)?
**A.** The IC50 was 50.1 nM.

**Q.** What about the IC50 (Full-length human MNK2) of the same compound?
**A.** The IC50 was 39.8 nM.
